# Results reported in patent publication US9301524B2, “Methods for reducing leaf senescence using methyl dihydrojasmonate” (New Biology, Inc., priority 2008, dated 2016).
# Columns and labels:
# [1] = test system: miniature PARADE® roses; assay: Foliar MDHJ spray, leaf senescence in potted miniature roses (Example 1); type: in vivo
# Experimental: Potted miniature […]® roses were evaluated for the effect on leaf senescence of foliar spray treatment with an MDHJ formulation. […] Another group of four plants was sprayed with a formulation comprising 1.5 mM MDHJ, 0.5% TRITON® X-100, and 0.125% canola oil. The treated plants were sprayed on six occasions, on days 1, 3, 12, 29, 31, and 58, by spraying foliage to the point of drip. […] Senescence was indicated by chlorosis and necrosis affecting greater than 50% of an individual leaflet.
# [2] = test system: Yellow Dwarf roses; assay: Foliar MDHJ spray, leaf senescence in potted Yellow Dwarf roses (Example 2); type: in vivo; details: one foliar spray
# Experimental: Potted Yellow Dwarf roses were grouped into one of four groups, and each of the groups received one treatment. One group was an untreated control (UTC), while the other three groups were treated with aqueous solutions of MDHJ that differed only in the concentration of MDHJ. There were three plants in each group. Before the trial began, naturally senescing leaves were visible on all plants; these were removed at the time that the trial began. The rose leaves received one foliar spray treatment by applying spray until the point of drip. […] Senescence was indicated by chlorosis and necrosis affecting greater than 50% of an individual leaf. After each evaluation, senescing leaves were removed. [table]
# [3] = test system: spinach seedlings, cultivar 'Merlo Nero'; assay: MDHJ spray, leaf senescence in greenhouse-grown spinach seedlings (Example 3); type: in vivo
# Experimental: Greenhouse-grown spinach seedlings, cultivar ‘Merlo Nero,’ were divided into two groups, with eight plants per group. One group was left untreated, while the other group was treated with 0.5 mM MDHJ in 0.1% ethanol by spraying leaves until the point of drip. Treatments occurred on days 1, 4 and 8 of the experiment. On day 6, senescence was noted on some leaves, defined by chlorosis and/or necrosis. Senescence began at the leaf tip and spread towards the petiole. […] All leaves from each plant were then harvested and combined for each treatment. The total number of senescing leaves were counted and taken as a percentage of the total number of leaves per treatment. Senescence was indicated by chlorosis and necrosis affecting greater than 50% of an individual leaf.
# [4] = test system: corn ('Kandy Korn', extra sweet) seedlings; assay: Foliar MDHJ spray, leaf senescence in corn seedlings (Example 4); type: in vivo; details: 6 days after treatment
# Experimental: Seeds of corn (‘Kandy Korn’, extra sweet) were planted in 2-inch pots. Seedlings were germinated under 16-hour day/8-hour night greenhouse conditions. Plants were placed outdoors and received 5-6 hours of natural, direct light. Eighteen days after planting, seedlings received one of two treatments. • Treatment 1 (n=11): Foliar spray with water—control • Treatment 2 (n=12): Foliar spray of 1 mM MDHJ in water. Plant leaves from both treatments were sprayed until the point of drip and allowed to air dry before being randomly combined into the same growing tray (to provide plants from both treatments with identical growing conditions). […] Plants were observed and visible leaf senescence recorded 6 days after the single treatment. Plants were scored according to presence or absence of senescence on any leaf of the plant. […] Of the plants with senescing leaves, only one leaf per plant had senescence (10%) in the Treatment 2 group.
# [5] = Solubility in water; type: physicochemical
# [6] = test system: plants; details: U.S. Patent Application Publication No. 2009/0082453; cited from earlier work
# [7] = test system: corn, rice, wheat, oat, barley, arabidopsis, sunflower, and zucchini; details: application to intact as well as excised plant leaves; literature; cited from earlier work
smiles,measurement,setting,value
"CCCCCC1C(=O)CCC1CC(=O)OC (stereo not shown) [MDHJ, methyl dihydrojasmonate]",senescing leaves (in words),"[1]; 1.5 mM MDHJ foliar spray, sixty-five days after treatment, untreated up to 9.4% of leaflets",no senescing leaves
same,% Leaflets exhibiting senescence,"[1]; individual plant, foliar spray 1.5 mM MDHJ, 0.5% TRITON X-100, 0.125% canola oil on days 1, 3, 12, 29, 31, 58, analyzed 65 days after first treatment, senescence = chlorosis and necrosis >50% of leaflet",0.0%
same,rate of naturally senescing leaves compared to the untreated control group (in words),"[2]; MDHJ treatment in general (1.5, 3.0, 6.0 mM)",reduced the rate of naturally senescing leaves
same,Mean No. Leaves (exhibiting senescence),"[2]; Treatment Group 2: 1.5 mM MDHJ + 0.125% TRITON X-100 + 0.5% Canola Oil, Day 3",27
same,Mean No. Leaves (exhibiting senescence),"[2]; Treatment Group 2: 1.5 mM MDHJ + 0.125% TRITON X-100 + 0.5% Canola Oil, Day 7",1
same,Mean No. Leaves (exhibiting senescence),"[2]; Treatment Group 2: 1.5 mM MDHJ + 0.125% TRITON X-100 + 0.5% Canola Oil, Day 10",5
same,Mean No. Leaves (exhibiting senescence),"[2]; Treatment Group 2: 1.5 mM MDHJ + 0.125% TRITON X-100 + 0.5% Canola Oil, Day 14",13
same,Mean No. Leaves (exhibiting senescence),"[2]; Treatment Group 2: 1.5 mM MDHJ + 0.125% TRITON X-100 + 0.5% Canola Oil, Day 31",27
same,Mean No. Leaves (exhibiting senescence),"[2]; Treatment Group 3: 3.0 mM MDHJ + 0.125% TRITON X-100 + 0.5% Canola Oil, Day 3",25
same,Mean No. Leaves (exhibiting senescence),"[2]; Treatment Group 3: 3.0 mM MDHJ + 0.125% TRITON X-100 + 0.5% Canola Oil, Day 7",1
same,Mean No. Leaves (exhibiting senescence),"[2]; Treatment Group 3: 3.0 mM MDHJ + 0.125% TRITON X-100 + 0.5% Canola Oil, Day 10",4
same,Mean No. Leaves (exhibiting senescence),"[2]; Treatment Group 3: 3.0 mM MDHJ + 0.125% TRITON X-100 + 0.5% Canola Oil, Day 14",12
same,Mean No. Leaves (exhibiting senescence),"[2]; Treatment Group 3: 3.0 mM MDHJ + 0.125% TRITON X-100 + 0.5% Canola Oil, Day 31",25
same,Mean No. Leaves (exhibiting senescence),"[2]; Treatment Group 4: 6.0 mM MDHJ + 0.125% TRITON X-100 + 0.5% Canola Oil, Day 3",23
same,Mean No. Leaves (exhibiting senescence),"[2]; Treatment Group 4: 6.0 mM MDHJ + 0.125% TRITON X-100 + 0.5% Canola Oil, Day 7",2
same,Mean No. Leaves (exhibiting senescence),"[2]; Treatment Group 4: 6.0 mM MDHJ + 0.125% TRITON X-100 + 0.5% Canola Oil, Day 10",5
same,Mean No. Leaves (exhibiting senescence),"[2]; Treatment Group 4: 6.0 mM MDHJ + 0.125% TRITON X-100 + 0.5% Canola Oil, Day 14",12
same,Mean No. Leaves (exhibiting senescence),"[2]; Treatment Group 4: 6.0 mM MDHJ + 0.125% TRITON X-100 + 0.5% Canola Oil, Day 31",23
same,% of Leaves Exhibiting Senescence,"[3]; 0.5 mM MDHJ in 0.1% ethanol sprayed on days 1, 4 and 8, counted day 8, untreated 34.6%",8.6%
same,% of Plants Exhibiting Senescence,"[3]; 0.5 mM MDHJ in 0.1% ethanol, day 8, eight plants, untreated 87.5%",37.5%
same,Number of Plants Exhibiting Chlorosis or Necrosis,"[3]; 0.5 mM MDHJ in 0.1% ethanol, day 8, of 8 plants, untreated 7",3
same,Number of Senescent Leaves,"[3]; 0.5 mM MDHJ in 0.1% ethanol, day 8, of 93 leaves in total, untreated 36 of 104",8
same,"of the plants with senescing leaves, only one leaf per plant had senescence (percentage in brackets)",[4]; Treatment 2: 1 mM MDHJ in water,10%
same,severity of senescence: mean % yellow per senescing leaf (leaf area),"[4]; Treatment 2: 1 mM MDHJ in water, water control 43%",15%
same,% of plants with two senescent leaves,"[4]; Treatment 2: single foliar spray of 1 mM MDHJ in water (n = 12), water control 27%",0%
same,% of plants with one senescent leaf,"[4]; Treatment 2: single foliar spray of 1 mM MDHJ in water (n = 12), water control 36%",25%
same,% of plants with senescing leaves,"[4]; Treatment 2: single foliar spray of 1 mM MDHJ in water (n = 12), water control 64%",27%
same,solubility in water (in words),[5],relatively low solubility in water
same,effect on biotic attack and disease in plants (in words),[6],effective in reducing biotic attack and disease in plants
"CC/C=C\CC1C(=O)CCC1CC(=O)O (stereo not shown) [jasmonic acid, 2-(3-oxo-2-(pent-2-enyl)cyclopentyl)acetic acid]",effect on leaf senescence (in words),[7],promotes or accelerates leaf senescence
CC/C=C\CC1C(=O)CCC1CC(=O)OC (stereo not shown) [methyl jasmonate],effect on leaf senescence (in words),[7],promotes or accelerates leaf senescence
